Reference: patent US20240309005A1 (priority 2021, published 2024)
Converted amounts (≈) assume the structure as drawn.

Assays:
CYP3A4 = assay: in vitro; conditions: human, microsomes
CYP2B6 = CYP2B6 (Homo sapiens (Human), UniProt P20813); assay: in vitro; conditions: microsomes
CYP2C9 = CYP2C9 (Homo sapiens (Human), UniProt P11712); assay: in vitro; conditions: microsomes
CYP2D6 = CYP2D6 (Homo sapiens (Human), UniProt P10635); assay: in vitro; conditions: microsomes
physchem = conditions: 25 °C, kinetic from dmso stock
CYP1A2 = CYP1A2 (Homo sapiens (Human), UniProt P05177); assay: in vitro; conditions: microsomes
in vivo [1] = conditions: male, SD, rat; for bioavailability / Cmax: po, 30 mg/kg
in vivo [2] = conditions: male, CD1, mouse; for Cmax / bioavailability: po, 30 mg/kg
[3] = male, SD, in vivo

Chain of CYP2D6 (P10635 whole entry): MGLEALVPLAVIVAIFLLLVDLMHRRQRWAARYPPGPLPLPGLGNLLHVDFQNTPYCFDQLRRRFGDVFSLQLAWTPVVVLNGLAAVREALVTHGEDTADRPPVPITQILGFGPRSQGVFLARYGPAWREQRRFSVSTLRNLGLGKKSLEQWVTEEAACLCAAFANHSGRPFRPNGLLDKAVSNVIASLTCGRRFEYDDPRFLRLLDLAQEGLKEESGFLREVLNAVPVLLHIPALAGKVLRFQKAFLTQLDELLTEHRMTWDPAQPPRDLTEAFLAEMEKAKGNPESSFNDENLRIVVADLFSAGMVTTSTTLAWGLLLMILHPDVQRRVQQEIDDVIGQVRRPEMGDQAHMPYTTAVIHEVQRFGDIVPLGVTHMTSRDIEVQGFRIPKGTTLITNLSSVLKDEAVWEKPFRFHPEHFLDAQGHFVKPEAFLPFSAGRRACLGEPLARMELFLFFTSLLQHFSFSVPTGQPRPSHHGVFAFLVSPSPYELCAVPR
Chain of CYP2C9 (P11712 whole entry): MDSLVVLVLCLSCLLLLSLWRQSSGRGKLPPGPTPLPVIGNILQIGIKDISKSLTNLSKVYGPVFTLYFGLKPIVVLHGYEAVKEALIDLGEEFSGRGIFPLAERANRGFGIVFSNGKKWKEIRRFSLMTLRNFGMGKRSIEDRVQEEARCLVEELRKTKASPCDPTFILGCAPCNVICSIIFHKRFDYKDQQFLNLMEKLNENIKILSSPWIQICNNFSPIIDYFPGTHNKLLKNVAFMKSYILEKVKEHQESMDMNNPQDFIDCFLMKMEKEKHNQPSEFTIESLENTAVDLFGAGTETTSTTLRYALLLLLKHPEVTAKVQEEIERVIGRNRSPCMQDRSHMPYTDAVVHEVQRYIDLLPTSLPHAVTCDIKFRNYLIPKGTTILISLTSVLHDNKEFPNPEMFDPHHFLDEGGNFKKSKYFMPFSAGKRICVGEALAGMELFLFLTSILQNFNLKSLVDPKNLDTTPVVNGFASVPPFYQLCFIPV
Chain of CYP2B6 (P20813 whole entry): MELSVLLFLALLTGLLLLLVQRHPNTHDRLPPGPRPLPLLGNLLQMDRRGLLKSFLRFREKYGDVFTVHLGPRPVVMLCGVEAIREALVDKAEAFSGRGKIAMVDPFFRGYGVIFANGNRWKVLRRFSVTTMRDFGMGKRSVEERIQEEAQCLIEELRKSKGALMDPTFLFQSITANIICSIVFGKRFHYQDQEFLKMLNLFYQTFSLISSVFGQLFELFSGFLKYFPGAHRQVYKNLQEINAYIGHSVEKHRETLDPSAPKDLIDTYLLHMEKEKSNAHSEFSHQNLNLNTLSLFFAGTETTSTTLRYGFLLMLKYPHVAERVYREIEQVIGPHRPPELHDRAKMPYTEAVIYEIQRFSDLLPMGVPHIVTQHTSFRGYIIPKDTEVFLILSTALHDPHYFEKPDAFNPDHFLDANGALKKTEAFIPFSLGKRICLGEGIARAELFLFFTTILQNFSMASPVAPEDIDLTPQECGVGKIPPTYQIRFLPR
Chain of CYP1A2 (P05177 whole entry): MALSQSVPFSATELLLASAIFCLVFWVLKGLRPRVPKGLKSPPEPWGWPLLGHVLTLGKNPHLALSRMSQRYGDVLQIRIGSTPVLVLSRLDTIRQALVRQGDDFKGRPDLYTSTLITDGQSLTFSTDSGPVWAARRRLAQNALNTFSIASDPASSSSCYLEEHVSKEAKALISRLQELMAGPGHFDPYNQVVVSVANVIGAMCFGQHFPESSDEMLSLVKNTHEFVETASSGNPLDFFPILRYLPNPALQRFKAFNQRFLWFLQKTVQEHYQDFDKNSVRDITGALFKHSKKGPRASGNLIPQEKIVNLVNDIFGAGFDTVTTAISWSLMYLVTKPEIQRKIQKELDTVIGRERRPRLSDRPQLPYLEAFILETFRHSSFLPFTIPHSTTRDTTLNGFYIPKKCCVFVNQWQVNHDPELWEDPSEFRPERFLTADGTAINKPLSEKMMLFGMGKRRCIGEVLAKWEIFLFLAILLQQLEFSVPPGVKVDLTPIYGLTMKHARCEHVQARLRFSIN

Row | SMILES | inhibition at 5 min, 10 µM (CYP3A4) [%] | inhibition at 10 min, 10 µM (CYP3A4) [%] | inhibition at 20 min, 10 µM (CYP2B6) [%] | inhibition at 20 min, 10 µM (CYP2C9) [%] | inhibition at 20 min, 10 µM (CYP2D6) [%] | solubility at 2 h (physchem; pH 5, fessif) [µM] | solubility at 2 h (physchem; pH 7.4, aqueous buffer) [µM] | inhibition at 20 min, 10 µM (CYP1A2) [%] | half-life (in vivo [1]) [h] | bioavailability (in vivo [1]) [%] | Cmax (in vivo [1]; Cmax (ng/ml)) [ng/mL] | Cmax (in vivo [1]; pK Data in Rat: Cmax) [ng/mL] | half-life (in vivo [2]) [h] | Cmax (in vivo [2]) [ng/mL] | bioavailability (in vivo [2]) [%] | pK Data in Rat: F [3] | hERG/IC50 (hERG / SGK1 (whole cell))
1 | Cc1n[nH]c2nc(-c3ccc(NS(=O)(=O)N4CCCC4)cc3)nc(OC3CCN(C(C)C)CC3)c12 [Compound 2, N-(4-(4-((1-isopropylpiperidin-4-yl)oxy)-3-methyl-1H-pyrazolo[3,4-d]pyrimidin-6-yl)phenyl)pyrrolidine-1-sulfonamide] | 7 | 13 | -5 | 13 | 7.3 | 291 (≈ 145 µg/mL) | 59.1 (≈ 29.5 µg/mL) | 5.9 | – | – | – | – | – | – | – | – | –
2 | Cc1n[nH]c2nc(-c3ccc(NS(=O)(=O)c4cc(Cl)ccc4F)cc3)nc(O[C@@H]3CCNCC3(F)F)c12 [Compound 44, (R)-5-chloro-N-(4-(4-((3,3-difluoropiperidin-4-yl)oxy)-3-methyl-1H-pyrazolo[3,4-d]pyrimidin-6-yl)phenyl)-2-fluorobenzenesulfonamide] | 93 | 91 | 39 | 92 | 44 | – | – | 11 | – | – | – | – | – | – | – | – | –
3 | Cc1n[nH]c2nc(-c3ccc(NS(=O)(=O)c4cc(Cl)ccc4F)cc3)nc(O[C@@H]3CCNC[C@@H]3F)c12 [Compound 29, 5-chloro-2-fluoro-N-(4-(4-(((3S,4R)-3-fluoropiperidin-4-yl)oxy)-3-methyl-1H-pyrazolo[3,4-d]pyrimidin-6-yl)phenyl)benzenesulfonamide] | 54 | 77 | 26 | 75 | 26 | 245 (≈ 131 µg/mL) | 3 (≈ 1.6 µg/mL) | 8.8 | 9.7 | 0.45 | 16 | – | 1.04 | 115 | 8 | – | 2476

More lines, main results first:

Row | inhibition at 5 min, 10 µM (CYP3A4) [%] | inhibition at 10 min, 10 µM (CYP3A4) [%] | inhibition at 20 min, 10 µM (CYP2B6) [%] | inhibition at 20 min, 10 µM (CYP2C9) [%] | inhibition at 20 min, 10 µM (CYP2D6) [%] | solubility at 2 h (physchem; pH 5, fessif) [µM] | solubility at 2 h (physchem; pH 7.4, aqueous buffer) [µM] | inhibition at 20 min, 10 µM (CYP1A2) [%] | half-life (in vivo [1]) [h] | bioavailability (in vivo [1]) [%] | Cmax (in vivo [1]; Cmax (ng/ml)) [ng/mL] | Cmax (in vivo [1]; pK Data in Rat: Cmax) [ng/mL] | half-life (in vivo [2]) [h] | Cmax (in vivo [2]) [ng/mL] | bioavailability (in vivo [2]) [%] | pK Data in Rat: F [3] | SMILES | hERG/IC50 (hERG / SGK1 (whole cell))
4 | 0.5 | 3 | 1.2 | 2.2 | 0 | 297 (≈ 150 µg/mL) | 3.38 (≈ 1.71 µg/mL) | -0.9 | 3.15 | 17.9 | 2470 | 2470 | 2.3 | 621 | 22 | Cmax = 2470 ng/mL F = 17.9% | Cc1n[nH]c2nc(-c3ccc(NS(=O)(=O)c4cc(F)ccc4F)c(F)c3)nc(NCCN(C)C)c12 [Compound 84, N-[4-(4-[[2-(dimethylamino)ethyl]amino]-3-methyl-1H-pyrazolo[3,4-d]pyrimidin-6-yl)-2-fluorophenyl]-2,5-difluorobenzenesulfonamide] | 177
5 | 19 | -2.9 | 7.7 | 9.4 | 1.8 | 315 (≈ 164 µg/mL) | 4.5 (≈ 2.35 µg/mL) | -0.7 | 3.6 | 92 | 2750 | 2750 | – | – | – | Cmax = 2747 ng/mL F = 92% | Cc1n[nH]c2nc(-c3ccc(NS(=O)(=O)c4cc(F)ccc4F)c(Cl)c3)nc(NCCN(C)C)c12 [Compound 85, N-(2-chloro-4-(4-((2-(dimethylamino)ethyl)amino)-3-methyl-1H-pyrazolo[3,4-d]pyrimidin-6-yl)phenyl)-2,5-difluorobenzenesulfonamide] | 82
6 | -24 | -2 | 12 | 65 | 7.5 | 205 (≈ 116 µg/mL) | 1.9 (≈ 1.07 µg/mL) | 2.4 | – | – | – | – | 12 | 1120 | – | – | Cc1n[nH]c2nc(-c3ccc(NS(=O)(=O)c4cc(C(F)(F)F)ccn4)cc3)nc(O[C@@H]3CCN(C)C[C@@H]3F)c12 [Compound 63, N-[4-(4-{[(3S,4R)-3-fluoro-1-methylpiperidin-4-yl]oxy}-3-methyl-1H-pyrazolo[3,4-d]pyrimidin-6-yl)phenyl]-4-(trifluoromethyl)pyridine-2-sulfonamide] | –
